Like-named read-outs stand apart in the source and are kept apart here. Bridge positions count the residues as written; N and C are the ends. Square brackets hold non-standard residues; d marks the D form. Peptide text beside a SMILES is read from it.

Holding throughout (type): in vivo
For one assay, the system named is glucagon. In words: Arginine-stimulated glucagon in Nembutal-treated rats, radioimmunoassay. Conditions: for Glucagon: albino male rats, *p<0.01. The procedure:
(§1) The biological activity of the peptides of Examples 2 and 4 were determined by the following procedure:
(§2) Albino male rats are administered Nembutal intraperitoneally at a dose of 50 milligrams per kilogram. Fifteen minutes later a subcutaneous injection of the test compound of physiological saline is administered. Ten minutes later 0.5 milliliters of arginine (300 milligrams per milliliter, pH 7.2) is injected into the heart. Five minutes after receipt of the arginine the rats are decapitated and blood is collected into trasylol-EDTA. An appropriate aliquot is assayed for growth hormone (GH), insulin, and glucagon by radioimmunoassay.

A further assay has as its system insulin. As to the kind of experiment: Arginine-stimulated insulin in Nembutal-treated rats, radioimmunoassay. Also on record: effect on insulin levels: dose or concentration left out as unconfirmed. Conditions: for Insulin: albino male rats. Here is the method:
as §1, §2

The test system of the next assay is growth hormone (GH). As to the kind of experiment: Arginine-stimulated growth hormone (GH) in Nembutal-treated rats, radioimmunoassay. Also noted: GH: reference not given here. Conditions: for GH: albino male rats, *p<0.01. Here is the method:
as §1, §2

The test system of the next assay is GH secretion. As to the kind of experiment: Duration of effect on GH secretion in rats treated with Nembutal. Also noted: duration of significant inhibition of GH: dose or concentration left out as unconfirmed. The procedure:
The peptides of Examples 2 and 4 were also tested for duration of their effect on GH secretion in rats treated with Nembutal.

The mark [1] stands for this setting: dose 200 ug/kg subcutaneous, blood 15 min after compound, 5 min after arginine.
[2] abbreviates: dose 200 ug/kg subcutaneous, blood 15 min after compound, 5 min after arginine, *p<0.01.

As for `C[C@@H](O)[C@@H]1NC(=O)[C@H](Cc2ccccc2)NC(=O)[C@H]([C@@H](C)O)NC(=O)[C@H](CCCCN)NC(=O)[C@@H](Cc2c[nH]c3ccccc23)NC(=O)[C@H](Cc2ccccc2)NC(=O)[C@H](Cc2ccccc2)NC(=O)[C@H](CCC(=O)O)NC(=O)[C@H](CCCNC(=N)N)NC(=O)[C@@H](N)CSSC[C@@H](C(=O)O)NC(=O)[C@H](CO)NC1=O` [Example 2, L-Cysteinyl-L-arginyl-L-glutamyl-L-phenylalanyl-L-phenylalanyl-D-tryptophyl-L-lysyl-L-threonyl-L-phenylalanyl-L-threonyl-L-seryl-L-cysteine cyclic (1-12) disulfide] (H-CREFF[dW]KTFTSC-OH; disulfide 1-12), the Glucagon with glucagon (dose 40 ug/kg subcutaneous) was 12 ± 2 pg/mL; in the assay on glucagon (setting [1]), 1.5 ± 1 pg/mL. Moreover, the reducing glucagon entry with glucagon (dose of 40 mg/kg) is “effective agents for reducing growth hormone and glucagon”. The Insulin in the assay on insulin (dose 40 ug/kg subcutaneous) is on record as 158 ± 57 μU/ml; in the assay on insulin (setting [2]) it was 115 ± 16 μU/ml. Moreover, the “effect on insulin levels” value with insulin (dose of 40) is reported as “without materially affecting insulin levels”. Besides, the GH worked out at 28 ± 5 ng/mL in the assay on growth hormone (GH) (dose 40 ug/kg subcutaneous) and 42 ± 6 ng/mL in the assay on growth hormone (GH) (setting [1]). Further, the reducing growth hormone entry with growth hormone (GH) (dose of 40 mg/kg) is “effective agents for reducing growth hormone”.

As for “tert-Butyloxycarbonyl-S-p-methoxybenzyl-L-cysteinyl-N^gn -tosyl-L-arginyl-γ-benzyl-L-glutamyl-L-phenylalanyl-L-phenylalanyl-D-tryptophyl-N^ε -2-chloro-benzyloxycarbonyl-L-lysyl-O-benzyl-L-threonyl-L-phenylalanyl-O-benzyl-L-threonyl-O-benzyl-L-seryl-S-p-methoxybenzyl-L-cysteine hydroxymethyl-polystyrene ester [Example 1]”, in the assay on GH secretion ((S.C.)), the “duration of significant inhibition of GH” value is on record as “at least 4 hours”.

On to `C[C@@H](O)[C@@H]1NC(=O)[C@H](Cc2ccccc2)NC(=O)[C@H]([C@@H](C)O)NC(=O)[C@H](CCCCN)NC(=O)[C@@H](Cc2c[nH]c3ccccc23)NC(=O)[C@H](Cc2ccccc2)NC(=O)[C@H](Cc2ccccc2)NC(=O)[C@H](CCC(=O)O)NC(=O)[C@H](Cc2c[nH]cn2)NC(=O)[C@@H](N)CSSC[C@@H](C(=O)O)NC(=O)[C@H](CO)NC1=O` [Example 4, L-Cysteinyl-L-histidyl-L-glutamyl-L-phenylalanyl-L-phenylalanyl-D-tryptophyl-L-lysyl-L-threonyl-L-phenylalanyl-L-threonyl-L-seryl-L-cysteine cyclic (1-12) disulfide] (H-CHEFF[dW]KTFTSC-OH; disulfide 1-12), for which, in the assay on glucagon, the reducing glucagon entry was “effective agents for reducing growth hormone and glucagon”. For the same compound, the Glucagon in the assay on glucagon (dose 50 ug/kg subcutaneous) was 10 ± 4 pg/mL; in the assay with glucagon (setting [1]) it was 4 ± 2 pg/mL. In addition, the results for the Insulin in the assay with insulin (dose 50 ug/kg subcutaneous) and in the assay on insulin (setting [2]) were 322 ± 40 μU/ml and 205 ± 36 μU/ml, respectively. Also, the “effect on insulin levels” value in the assay with insulin (dose of 50) is reported as “without materially affecting insulin levels”. Further, the GH came out at 84 ± 17 ng/mL with growth hormone (GH) (dose 50 ug/kg subcutaneous) and 107 ± 29 ng/mL in the assay with growth hormone (GH) (setting [1]). For the same compound, the reducing growth hormone result in the assay with growth hormone (GH) (dose of 50 mg/kg) is “effective agents for reducing growth hormone”. Further, in the assay with GH secretion (at 2 and 4 hours), the “inhibition of GH at 2 and 4 hours” value was “no significant inhibition of GH”.
